Assay results: the supplement of paper PMC10307832

compound: Cc1ccccc1C(C(=O)NC1CCCCC1)N(C(=O)Cn1ccnc1C)c1cccc(F)c1 [IDH-C35] + C[C@@H](Oc1cc(-c2cnn(C3CCNCC3)c2)cnc1N)c1c(Cl)ccc(F)c1Cl [Crizotinib] (partner 1 µM); assay: relative viability (nuclei count vs DMSO), 5 days (fraction); higher = more cells survive; settings: first compound 0.08 µM
Outline: (§1)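 After 5 days of treatment, lung cancer cells in 1536-well plates were fixed and stained in a single step (final 0.05% Triton X-100, 1% formaldehyde, 1 ug/ml Hoechst) and their nuclei counted on 4× images. Treatment had been applied by pin tool the day after seeding as one drug alone or as a fixed anchor-drug dose with five library-drug doses (not always all listed) in √10 steps. Relative viability is the nuclei count of treated wells divided by that of vehicle wells, and values are medians of duplicate plates.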

Cell Line	relative viability
NCI-H3122	0.292
NCI-H1437	0.979
NCI-H1755	0.911
NCI-H2023	0.668
HCC-15	0.854
PC-14	0.886
EKVX	0.953
LC-2-ad	0.463
NCI-H1975	1
RERF-LC-KJ	0.887
NCI-H650	0.671
PC-3 [JPC-3]	1.01

same assay, conditions: first compound 0.253 µM

Cell Line	relative viability
NCI-H3122	0.299
NCI-H1437	0.913
NCI-H1755	0.915
NCI-H2023	0.627
HCC-15	0.804
PC-14	0.845
EKVX	0.74
LC-2-ad	0.454
NCI-H1975	0.967
RERF-LC-KJ	0.822
NCI-H650	0.677
PC-3 [JPC-3]	0.919

same assay, conditions: first compound 0.8 µM

Cell Line	relative viability
NCI-H3122	0.295
NCI-H1437	0.907
NCI-H1755	0.872
NCI-H2023	0.637
HCC-15	0.802
PC-14	0.837
EKVX	0.688
LC-2-ad	0.426
NCI-H1975	0.93
RERF-LC-KJ	0.794
NCI-H650	0.9
PC-3 [JPC-3]	0.929

same assay, conditions: first compound 2.53 µM

Cell Line	relative viability
NCI-H3122	0.252
NCI-H1437	0.874
NCI-H1755	0.865
NCI-H2023	0.636
HCC-15	0.814
PC-14	0.88
EKVX	0.935
NCI-H1975	0.924
RERF-LC-KJ	0.904
PC-3 [JPC-3]	1.03

same assay, conditions: first compound 8 µM

Cell Line	relative viability
NCI-H3122	0.27
NCI-H1437	0.796
NCI-H1755	0.827
NCI-H2023	0.592
HCC-15	0.731
PC-14	0.835
EKVX	1.08
LC-2-ad	0.485
NCI-H1975	0.876
RERF-LC-KJ	0.763
NCI-H650	0.689
PC-3 [JPC-3]	0.965

compound: CC1=C(C(=NN1)C)CC2=C(C3=C(S2)N(C(=O)N(C3=O)C)CC(C)C)C(=O)N4C[C@@H](CO4)O + CC(C)C[C@H](NC(=O)[C@H](Cc1ccccc1)NC(=O)c1cnccn1)B(O)O [Bortezomib] (partner 0.002 µM); assay: as above; settings: first compound 0.0025 µM
Outline: as §1

Cell Line	relative viability
NCI-H3122	0.963
NCI-H1437	0.669
NCI-H1755	1.01
NCI-H2023	1.11
HCC-15	1
PC-14	0.841
EKVX	1.02
LC-2-ad	1.06
NCI-H1975	0.423
RERF-LC-KJ	1.01
NCI-H650	1.02
PC-3 [JPC-3]	0.949

same assay, conditions: first compound 0.007906 µM

Cell Line	relative viability
NCI-H3122	0.978
NCI-H1437	0.568
NCI-H1755	0.875
NCI-H2023	1.11
HCC-15	0.945
PC-14	0.86
EKVX	1.33
LC-2-ad	1.05
NCI-H1975	0.338
RERF-LC-KJ	1.23
NCI-H650	0.714
PC-3 [JPC-3]	0.869

same assay, conditions: first compound 0.025 µM

Cell Line	relative viability
NCI-H3122	1
NCI-H1437	0.516
NCI-H1755	0.962
NCI-H2023	0.945
HCC-15	0.979
PC-14	0.896
EKVX	1.07
LC-2-ad	1.15
NCI-H1975	0.42
RERF-LC-KJ	1.22
NCI-H650	0.671
PC-3 [JPC-3]	0.886

same assay, conditions: first compound 0.07906 µM

Cell Line	relative viability
NCI-H3122	0.99
NCI-H1437	0.441
NCI-H1755	0.963
NCI-H2023	0.975
HCC-15	1.02
PC-14	0.972
EKVX	0.992
LC-2-ad	0.999
NCI-H1975	0.409
RERF-LC-KJ	1.06
NCI-H650	0.757
PC-3 [JPC-3]	0.79

same assay, conditions: first compound 0.25 µM

Cell Line	relative viability
NCI-H3122	1.02
NCI-H1437	0.601
NCI-H1755	1.13
NCI-H2023	0.963
HCC-15	1.2
PC-14	1.03
EKVX	1.03
LC-2-ad	1.14
NCI-H1975	0.342
RERF-LC-KJ	1.21
NCI-H650	0.825
PC-3 [JPC-3]	0.786

compound: CC1=C(C(=NN1)C)CC2=C(C3=C(S2)N(C(=O)N(C3=O)C)CC(C)C)C(=O)N4C[C@@H](CO4)O + CC(=O)Nc1cccc(-n2c(=O)n(C3CC3)c(=O)c3c(Nc4ccc(I)cc4F)n(C)c(=O)c(C)c32)c1 [Trametinib] (partner 0.02 µM); assay: as above; settings: first compound 0.0025 µM
Outline: as §1

Cell Line	relative viability
NCI-H3122	0.226
NCI-H1437	0.617
NCI-H1755	0.829
NCI-H2023	0.667
HCC-15	0.411
PC-14	0.795
EKVX	0.397
LC-2-ad	0.928
NCI-H1975	0.38
RERF-LC-KJ	0.898
NCI-H650	1.09
PC-3 [JPC-3]	0.74

same assay, conditions: first compound 0.007906 µM

Cell Line	relative viability
NCI-H3122	0.305
NCI-H1437	0.675
NCI-H1755	0.818
NCI-H2023	0.613
HCC-15	0.365
PC-14	0.839
EKVX	0.339
LC-2-ad	0.874
NCI-H1975	0.358
RERF-LC-KJ	0.94
NCI-H650	1.01
PC-3 [JPC-3]	0.649

same assay, conditions: first compound 0.025 µM

Cell Line	relative viability
NCI-H3122	0.254
NCI-H1437	0.543
NCI-H1755	0.745
NCI-H2023	0.562
HCC-15	0.378
PC-14	0.784
EKVX	0.353
LC-2-ad	0.922
NCI-H1975	0.403
RERF-LC-KJ	0.838
NCI-H650	1.15
PC-3 [JPC-3]	0.718

same assay, conditions: first compound 0.07906 µM

Cell Line	relative viability
NCI-H3122	0.187
NCI-H1437	0.563
NCI-H1755	0.73
NCI-H2023	0.599
HCC-15	0.407
PC-14	0.917
EKVX	0.246
LC-2-ad	0.896
NCI-H1975	0.491
RERF-LC-KJ	0.883
NCI-H650	0.982
PC-3 [JPC-3]	0.678

same assay, conditions: first compound 0.25 µM

Cell Line	relative viability
NCI-H3122	0.229
NCI-H1437	0.511
NCI-H1755	0.761
NCI-H2023	0.575
HCC-15	0.415
PC-14	0.929
EKVX	0.372
LC-2-ad	0.927
NCI-H1975	0.33
RERF-LC-KJ	0.909
NCI-H650	1.04
PC-3 [JPC-3]	0.682

compound: CC1=C(C(=NN1)C)CC2=C(C3=C(S2)N(C(=O)N(C3=O)C)CC(C)C)C(=O)N4C[C@@H](CO4)O + Nc1ncn([C@H]2C[C@H](O)[C@@H](CO)O2)c(=O)n1 [Decitabine] (partner 2 µM); assay: as above; settings: first compound 0.0025 µM
Outline: as §1

Cell Line	relative viability
NCI-H3122	0.393
NCI-H1437	0.532
NCI-H1755	0.699
NCI-H2023	0.23
HCC-15	0.707
PC-14	0.223
EKVX	0.365
LC-2-ad	0.776
NCI-H1975	0.37
RERF-LC-KJ	0.852
NCI-H650	0.321
PC-3 [JPC-3]	0.843

same assay, conditions: first compound 0.007906 µM

Cell Line	relative viability
NCI-H3122	0.454
NCI-H1437	0.59
NCI-H1755	0.811
NCI-H2023	0.255
HCC-15	0.621
PC-14	0.27
EKVX	0.311
LC-2-ad	0.8
NCI-H1975	0.41
RERF-LC-KJ	0.739
NCI-H650	0.39
PC-3 [JPC-3]	0.787

same assay, conditions: first compound 0.025 µM

Cell Line	relative viability
NCI-H3122	0.47
NCI-H1437	0.519
NCI-H1755	0.742
NCI-H2023	0.211
HCC-15	0.692
PC-14	0.215
EKVX	0.309
LC-2-ad	0.877
NCI-H1975	0.393
RERF-LC-KJ	0.766
NCI-H650	0.336
PC-3 [JPC-3]	0.9

same assay, conditions: first compound 0.07906 µM

Cell Line	relative viability
NCI-H3122	0.448
NCI-H1437	0.612
NCI-H1755	0.646
NCI-H2023	0.231
HCC-15	0.662
PC-14	0.199
EKVX	0.267
LC-2-ad	0.8
NCI-H1975	0.444
RERF-LC-KJ	0.656
NCI-H650	0.329
PC-3 [JPC-3]	0.843

same assay, conditions: first compound 0.25 µM

Cell Line	relative viability
NCI-H3122	0.389
NCI-H1437	0.548
NCI-H1755	0.696
NCI-H2023	0.244
HCC-15	0.781
PC-14	0.275
EKVX	0.369
LC-2-ad	0.871
NCI-H1975	0.423
RERF-LC-KJ	0.678
NCI-H650	0.361
PC-3 [JPC-3]	0.996
